Measured values: the supplement of paper PMC10307832

Columns and labels:
Experiment in all cases: relative viability (nuclei count vs DMSO), 5 days (fraction); higher = more cells survive
Cediranib = compound: COc1cc2c(Oc3ccc4[nH]c(C)cc4c3F)ncnc2cc1OCCCN1CCCC1 [Cediranib]
In short: (§1)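 Only plates meeting two conditions passed: control CV below 25% and at least one doubling. Lung cancer cell lines, kept overnight at 37 °C in 1536-well plates, were pinned with five library-drug doses (not always all listed) √10 apart on vehicle-anchored plates and grown 5 days without medium change. A one-step fix, permeabilisation and Hoechst stain preceded 4× imaging and MetaXpress nuclear counting. Viability equals treated-well nuclei divided by vehicle-well nuclei, as the median over plates.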

Decitabine = compound: Nc1ncn([C@H]2C[C@H](O)[C@@H](CO)O2)c(=O)n1 [Decitabine]
In short: as §1

Halofuginone = compound: O=C(C[C@H]1NCCC[C@@H]1O)Cn1cnc2cc(Br)c(Cl)cc2c1=O (racemic) [Halofuginone]
In short: as §1

Row | Cell Line | relative viability (Cediranib; 0.04 µM) | relative viability (Cediranib; 0.1265 µM) | relative viability (Cediranib; 0.4 µM) | relative viability (Cediranib; 1.265 µM) | relative viability (Cediranib; 4 µM) | relative viability (Decitabine; 0.04 µM) | relative viability (Decitabine; 0.1265 µM) | relative viability (Decitabine; 0.4 µM) | relative viability (Decitabine; 1.265 µM) | relative viability (Decitabine; 4 µM) | relative viability (Halofuginone; 0.001 µM) | relative viability (Halofuginone; 0.003162 µM) | relative viability (Halofuginone; 0.01 µM) | relative viability (Halofuginone; 0.03162 µM) | relative viability (Halofuginone; 0.1 µM) | relative viability (Decitabine; 2 µM, anchor plate)
1 | NCI-H1623 | 1 | 0.599 | 0.879 | 1.04 | 1.07 | 0.864 | 0.749 | 0.664 | 0.52 | 0.516 | 0.947 | 0.873 | 0.966 | 1.07 | 0.875 | 
2 | BEN | 1.07 | 0.643 | 0.903 | 0.758 | 0.931 | 0.848 | 0.853 | 0.663 | 0.587 | 0.505 | 0.993 | 1.05 | 1.05 | 1.03 | 0.65 | 0.771
3 | EPLC-272H | 0.77 |  | 0.915 | 0.792 | 0.975 | 0.6 | 0.749 |  | 0.46 | 0.407 | 1.07 | 1.02 | 0.921 | 1.01 | 0.889 | 0.386
4 | LK-2 | 1.03 | 0.86 | 0.909 | 0.965 | 0.821 | 0.848 | 1.03 | 0.721 | 0.472 | 0.484 | 0.91 | 0.927 | 1.03 | 1.02 | 0.741 | 0.302
5 | NCI-H1299 | 1.02 | 1.02 | 0.99 | 1.03 | 1.09 | 1.03 | 1.02 | 1.02 | 0.943 | 0.874 | 1.06 | 1.06 | 0.999 | 0.979 | 0.886 | 
6 | ChaGo-K-1 | 0.965 | 0.733 | 0.952 | 1.1 | 0.997 | 0.933 | 0.816 | 0.537 | 0.482 | 0.477 | 0.995 | 0.968 | 0.916 | 0.967 | 1.03 | 0.537
7 | NCI-H1703 | 0.819 | 0.677 | 0.471 | 0.363 | 0.393 | 0.772 | 0.669 | 0.288 | 0.332 | 0.246 | 0.931 | 0.994 | 0.886 | 0.668 | 0.519 | 
8 | HCC-827 | 1.19 |  | 1.02 | 1.04 | 1.03 | 0.306 | 0.483 | 0.398 | 0.288 | 0.377 | 1.07 | 1.04 | 0.976 | 1.03 | 0.939 | 0.325
9 | NCI-H1993 | 0.73 | 0.878 | 0.857 | 0.726 | 0.87 | 0.863 | 0.844 | 0.929 | 0.755 | 0.757 | 1.23 | 0.978 | 0.893 | 1.11 | 0.749 | 0.596
10 | NCI-H647 | 1.06 | 0.911 | 0.831 | 0.895 | 1.01 | 0.732 | 0.817 | 0.451 | 0.249 | 0.233 | 1.11 | 0.971 | 0.905 | 0.815 | 0.599 | 0.403
